Data from patent publication US11078153B2, “2-difluoro substituted 4-aminocyclopentanecarboxylic acids as inhibitors of gamma-aminobutyric acid aminotransferase and human ornithine aminotransferase” (Northwestern University, priority 2019, dated 2021).
“Also recorded” adds a separate entry of the source. Read-outs that look alike come from different tables or passages of the source. Each block holds one molecule with its values, some of them ahead of it.

Tests used:
OAT [1] = target: T1, OAT (Homo sapiens, UniProt P04181); assay: OAT inhibition / inactivation assay (concentration-dependent assay with OAT); format: biochemical
T1 sequence (P04181 36-439 limits assumed): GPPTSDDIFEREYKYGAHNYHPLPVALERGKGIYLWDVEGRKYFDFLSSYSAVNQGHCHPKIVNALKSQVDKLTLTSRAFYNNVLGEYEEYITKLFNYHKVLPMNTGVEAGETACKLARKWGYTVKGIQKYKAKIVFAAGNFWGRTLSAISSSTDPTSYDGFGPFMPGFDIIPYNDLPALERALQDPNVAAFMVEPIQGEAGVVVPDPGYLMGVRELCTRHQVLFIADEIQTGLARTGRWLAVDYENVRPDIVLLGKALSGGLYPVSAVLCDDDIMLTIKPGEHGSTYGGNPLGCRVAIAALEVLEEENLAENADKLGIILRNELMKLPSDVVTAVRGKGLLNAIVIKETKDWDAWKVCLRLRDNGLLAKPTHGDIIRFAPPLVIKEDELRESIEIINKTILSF

GABA-AT [2] = assay: Concentration dependent assay of GABA-AT; format: biochemical
GABA-AT [3] = assay: Time-dependent assay with GABA-AT; format: biochemical
[4] = long-term administration; cited from earlier work
[5] = cocaine addiction in humans, 9-week double-blind trial; cited from earlier work
OAT [6] = target: T1, OAT; assay: OAT fluoride release assay; format: biochemical; settings: without α-ketoglutarate, FIG. 3
Experimental: An OAT fluoride release assay was performed with NAL-1-47 and it was calculated that there were 13.02 fluoride ions released per enzyme active site (FIG. 3).

OAT [7] = target: T1, OAT; assay: Dialysis assay of NAL-1-47 with OAT; format: biochemical; settings: for Percent Activity Remaining of OAT with NAL-1-47: pre-incubated overnight at 37° C.
Experimental: NAL-1-47 was incubated with OAT then dialyzed to determine whether it functions as a reversible inhibitor or an irreversible inactivator of OAT. NAL-1-47 was pre-incubated overnight at 37° C. with OAT. The remaining activity of the OAT was determined for 20, 50, 80, and 120 equiv of NAL-1-47 per OAT active site. The inactivated OAT was then dialyzed for 144 h and using a control, it was confirmed that the control OAT retained the majority of its activity after this dialysis.

OAT [8] = target: T1, OAT; assay: Time-dependent assay with OAT (kinact/KI); format: biochemical
Description: In summary, enantiomerically pure 1 was synthesized from an enantiomerically pure Vince lactam in six steps.

OAT [9] = target: T1, OAT; assay: Partition ratio assay of OAT; format: biochemical; settings: with α-KG, FIG. 5
Experimental: A partition ratio assay of OAT with NAL-1-47 was performed to determine the ratio of the compound acting as a substrate to the compound inactivating the enzyme.

[10] = listed as S, S enantiomer, hydrochloride

SMILES: N[C@@H]1C[C@H](C(=O)O)C(F)(F)C1 [NAL-1-73]
inhibition / inactivation of OAT (in words) (OAT [1]; listed as R, R enantiomer): did not inhibit either OAT or GABA-AT potently
inhibition of GABA-AT (in words) (GABA-AT [2]): neither compound potently inhibited GABA-AT
Activity Remaining (GABA-AT) (GABA-AT [2]; Conc. 0.0781 mM): 100.9%
Activity Remaining (GABA-AT) (GABA-AT [2]; Conc. 0.1563 mM): 94.5%
Activity Remaining (GABA-AT) (GABA-AT [2]; Conc. 0.3125 mM): 95.1%
Activity Remaining (GABA-AT) (GABA-AT [2]; Conc. 0.625 mM): 103.5%
Activity Remaining (GABA-AT) (GABA-AT [2]; Conc. 1.25 mM): 88.8%
Activity Remaining (GABA-AT) (GABA-AT [2]; Conc. 2.5 mM): 85.2%
Activity Remaining (GABA-AT) (GABA-AT [2]; Conc. 5 mM): 70.3%
Activity Remaining (GABA-AT) (GABA-AT [2]; Conc. 10 mM): 55.3%
inhibition of GABA-AT (in words) (GABA-AT [2]; listed as R, R enantiomer): did not inhibit either OAT or GABA-AT potently
inhibitory activity against GABA-AT in time-dependent assays (in words) (GABA-AT [3]): no significant inhibitory activity

SMILES: C=CC(N)CCC(=O)O (centres unmarked) [Vigabatrin]
permanent vision loss, share of epilepsy patients [4]: 25-40%
patients achieving abstinence [5]: up to 28%

fluoride ions released per enzyme active site (OAT [6]): 13.02
inhibition / inactivation of OAT (in words) (OAT [1]; [10]): inactivate OAT
Percent Activity Remaining of OAT with NAL-1-47 (OAT [7]; 20 equiv per OAT active site): 67.3%
Percent Activity Remaining of OAT with NAL-1-47 after 144 h Dialysis (OAT [7]; 20 equiv): 63.3%
Percent Activity Remaining of OAT with NAL-1-47 (OAT [7]; 50 equiv per OAT active site): 52.5%
Percent Activity Remaining of OAT with NAL-1-47 after 144 h Dialysis (OAT [7]; 50 equiv): 38.5%
Percent Activity Remaining of OAT with NAL-1-47 (OAT [7]; 80 equiv per OAT active site): 31.7%
Percent Activity Remaining of OAT with NAL-1-47 after 144 h Dialysis (OAT [7]; 80 equiv): 27.6%
Percent Activity Remaining of OAT with NAL-1-47 (OAT [7]; 120 equiv per OAT active site): 21.1%
Percent Activity Remaining of OAT with NAL-1-47 after 144 h Dialysis (OAT [7]; 120 equiv): 15.1%
kinact/KI (OAT [8]; OAT, Example 2, FIG. 4, read-out: kinact/KI (converted)): 1.13 M⁻¹ s⁻¹
kinact/KI (OAT [8]; time-dependent assay with OAT, Example 1): 2.67 M⁻¹ s⁻¹
partition ratio (OAT [9]): 54.5
SMILES: Cl.N[C@H]1C[C@@H](C(=O)O)C(F)(F)C1 [NAL-1-47, (1S,4S)-4-amino-2,2-difluorocyclopentanecarboxylic acid hydrochloride]
inhibition / inactivation of OAT (in words) (OAT [1]; hydrochloride): shown to inactivate OAT; also recorded: found to inhibit OAT potently
inhibition / inactivation of OAT (in words) (OAT [1]; listed as 1, hydrochloride): inhibitory activity against the enzymes GABA-AT and OAT; also recorded: inhibit OAT more potently than the racemic version of this compound; also recorded: determined as an inactivator; also recorded: selectively inactivate OAT and was more potent than the racemic compound
Activity Remaining (GABA-AT) (GABA-AT [2]; Conc. 0.0781 mM): 110.6%
Activity Remaining (GABA-AT) (GABA-AT [2]; Conc. 0.1563 mM): 100.7%
Activity Remaining (GABA-AT) (GABA-AT [2]; Conc. 0.3125 mM): 91.0%
Activity Remaining (GABA-AT) (GABA-AT [2]; Conc. 0.625 mM): 93.6%
Activity Remaining (GABA-AT) (GABA-AT [2]; Conc. 1.25 mM): 93.4%
Activity Remaining (GABA-AT) (GABA-AT [2]; Conc. 2.5 mM): 88.3%
Activity Remaining (GABA-AT) (GABA-AT [2]; Conc. 5 mM): 67.8%
Activity Remaining (GABA-AT) (GABA-AT [2]; Conc. 10 mM): 44.7%
inhibition of GABA-AT (in words) (GABA-AT [2]; hydrochloride): does not inhibit GABA-AT potently; also recorded: neither compound potently inhibited GABA-AT
inhibition of GABA-AT (in words) (GABA-AT [2]; listed as 1, hydrochloride): inhibitory activity against the enzymes GABA-AT and OAT
inhibition of GABA-AT (in words) (GABA-AT [2]; [10]): only very weakly inhibit GABA-AT
inhibitory activity against GABA-AT in time-dependent assays (in words) (GABA-AT [3]): no significant inhibitory activity
